These results are taken from patent US10273503B2, “Compounds and methods for enhancing viral gene transfer to human hematopoietic cells” (UNIVERSTÉ DE MONTRÉAL, priority 2015, dated 2019).

pEC50: −log10 of the molar value.

The subject of one assay is human CD34+ cells. Kind of assay: Expansion of human CD34+ cells (EC50, CD34+CD45RA- cell count). The format is cell-based. To be noted: Homo sapiens, concentration that results in a 50% increase in CD34+CD45RA- cell count compared to vehicle cultures (DMSO); read-out: Biological data (EC50)*.
What is called pEC50 is the negative decadic logarithm of the EC50, by convention in mol/L. Regarding `COC(=O)c1ccc2c(c1)[nH]c1ncnc(NCCCN3CCCCC3)c12` [Cmpd 2], the pEC50 is 6.30 to 6.60.

Turning to `COC(=O)c1ccc2c(c1)[nH]c1cc(Cc3cccc(O)c3)nc(NCCCCN3CCCC3)c12` [Cmpd 82], the pEC50 was over 7.00.

On to `COC(=O)c1cnc2c(c1)[nH]c1nc(Cc3ccccc3C)nc(NCCCN3CCCCC3)c12` [Cmpd 66], for which the pEC50 was 6.30 to 6.60.

On to `COC(=O)c1ccc2c(c1)[nH]c1ncnc(NCCN(C)C)c12` [Cmpd 11], for which the pEC50 is 6.60 to 7.00.

Turning to `COC(=O)c1cnc2c(c1)[nH]c1nc(Cc3cccc(F)c3)nc(NCCCN3CCCCC3)c12` [Cmpd 70], the pEC50 is under 6.00.

Turning to `COC(=O)c1ccc2c(c1)[nH]c1nc(Cc3cccc(OC)c3)nc(NCCCN3CCCCC3)c12` [Cmpd 38], the pEC50 is over 7.00.

Consider `COC(=O)c1cnc2c(c1)[nH]c1nc(Cc3ccsc3)nc(NCCCN3CCCCC3)c12` [Cmpd 61], for which the pEC50 was 6.30 to 6.60.

Turning to `COC(=O)c1ccc2c(c1)[nH]c1nc(Cc3ccccc3C)nc(NCCCN3CCCCC3)c12` [Cmpd 36], the pEC50 was over 7.00.

Turning to `COC(=O)c1ccc2c(c1)[nH]c1nc(Cc3cnccn3)nc(NCCCN3CCCCC3)c12` [Cmpd 24], the pEC50 is 6.00 to 6.30.

Take `COC(=O)c1ccc2c(c1)[nH]c1nc(Cc3ccccc3)nc(NCCCN(C)CCCNC(=O)CCCC[C@@H]3SC[C@@H]4NC(=O)N[C@@H]43)c12` [Cmpd 56]: the pEC50 was 6.30 to 6.60.

For the compound `COC(=O)c1ccc2c(c1)[nH]c1nc(Cc3cccc(C4(C(F)(F)F)N=N4)c3)nc(NCCCN3CCCCC3)c12` [Cmpd 32], the pEC50 was over 7.00.

For `COC(=O)c1ccc2c(c1)[nH]c1nc(Cc3ccccc3)nc(NCCCN(C)CCCN)c12` [Cmpd 50], the pEC50 was over 7.00.

As to `COC(=O)c1ccc2c(c1)[nH]c1nc(Cc3ccccc3)nc(NCCCN(C)CCOCCOCCO)c12` [Cmpd 49], the pEC50 is over 7.00.

Turning to `COC(=O)c1ccc2c(c1)[nH]c1cc(Cc3ccccc3)nc(N(C)CCCN(C)C)c12` [Cmpd 79], the pEC50 is over 7.00.

As for `COC(=O)c1ccc2c(c1)[nH]c1ccnc(NCCCN3CCCCC3)c12` [Cmpd 76], the pEC50 is under 6.00.

In the case of `COC(=O)c1ccc2c(c1)[nH]c1cc(Cc3ccsc3)nc(NCCCN3CCCCC3)c12` [Cmpd 85], the pEC50 was 6.60 to 7.00.

For the compound `COC(=O)c1ccc2c(c1)[nH]c1nc(C)nc(NCCCN3CCCCC3)c12` [Cmpd 58], the pEC50 was under 6.00.

Consider `COC(=O)c1ccc2c(c1)[nH]c1nc(Cc3ccc(C)cc3)nc(NCCCN3CCCCC3)c12` [Cmpd 37], for which the pEC50 is over 7.00.

On to `COC(=O)c1cnc2c(c1)[nH]c1nc(Cc3ccccc3)nc(N3CCC(N(C)C)CC3)c12` [Cmpd 74], for which the pEC50 is 6.60 to 7.00.

With `COC(=O)c1cnc2c(c1)[nH]c1nc(Cc3ccsc3)nc(SCCCN3CCCCC3)c12` [Cmpd 62], the pEC50 was 6.00 to 6.30.

On to `COC(=O)c1ccc2c(c1)[nH]c1nc(Cc3cccc(C(=O)C(F)(F)F)c3)nc(NCCCN3CCCCC3)c12` [Cmpd 39], for which the pEC50 was over 7.00.

`COC(=O)c1ccc2c(c1)[nH]c1ncnc(NCCCN3CCCC3)c12` [Cmpd 9]: the pEC50 was 6.60 to 7.00.

Turning to `CNCCCN(C)c1nc(Cc2cccnc2)cc2[nH]c3cc(C(=O)OC)ccc3c12` [Cmpd 87], the pEC50 was under 6.00.

Consider `CNCCCNc1nc(Cc2ccccc2C)nc2[nH]c3cc(C(=O)OC)cnc3c12` [Cmpd 68], for which the negative logarithm of the EC50 (pEC50) is 6.00 to 6.30.

`COC(=O)c1ccc2c(c1)[nH]c1ncnc(NCC(O)CN3CCCCC3)c12` (centres unmarked) [Cmpd 16]: the pEC50 is 6.30 to 6.60.

On to `COC(=O)c1ccc2c(c1)[nH]c1ncnc(NCCC3CCNCC3)c12` [Cmpd 18], for which the pEC50 is 6.30 to 6.60.

As to `COC(=O)c1ccc2c(c1)[nH]c1nc(Cc3cccnc3)nc(NCCCN3CCCCC3)c12` [Cmpd 22], the pEC50 was over 7.00.

Turning to `COC(=O)c1ccc2c(c1)[nH]c1nc(Cc3cc(Br)cc(I)c3)nc(NCCCN3CCCCC3)c12` [Cmpd 26], the pEC50 was over 7.00.

For `COC(=O)c1ccc2c(c1)[nH]c1cc(Cc3ccccc3)nc(NCCN3CCCC3)c12` [Cmpd 78], the pEC50 was over 7.00.

As to `CCN(CC)CCN(CC)c1nc(Cc2ccccc2)nc2[nH]c3cc(C(=O)OC)cnc3c12` [Cmpd 75], the pEC50 is 6.30 to 6.60.

On to `COC(=O)c1ccc2c(c1)[nH]c1ncnc(NC3CCNCC3)c12` [Cmpd 17], for which the pEC50 is 6.00 to 6.30.

Consider `Cn1nnc(-c2ccc3c(c2)[nH]c2ncnc(NCCCN4CCCCC4)c23)n1` [Cmpd 21], for which the pEC50 is 6.60 to 7.00.

For `COC(=O)c1ccc2c(c1)[nH]c1cc(Cc3cccnc3)nc(N3CCC(N4CCCC4)CC3)c12` [Cmpd 86], the pEC50 is under 6.00.

As for `COC(=O)c1ccc2c(c1)[nH]c1nc(Cc3ccncc3)nc(NCCCN3CCCCC3)c12` [Cmpd 23], the pEC50 was 6.30 to 6.60.

On to `COC(=O)c1ccc2c(c1)[nH]c1cc(Cc3cccnc3)nc(NCCCN3CCOCC3)c12` [Cmpd 84], for which the pEC50 is 6.00 to 6.30.

For the compound `CCN(CCCN1CCCCC1)c1nc(Cc2ccccc2)nc2[nH]c3cc(C(=O)OC)ccc3c12` [Cmpd 53], the pEC50 is under 6.00.

As for `COC(=O)c1ccc2c(c1)[nH]c1ncnc(NCCCN)c12` [Cmpd 15], the pEC50 was 6.30 to 6.60.

As for `COC(=O)c1ccc2c(c1)[nH]c1cc(Cc3ccsc3)nc(NCCN(C)CCN)c12` [Cmpd 89], the pEC50 was 6.30 to 6.60.

In the case of `COC(=O)c1cnc2c(c1)[nH]c1nc(Cc3ccccc3)nc(NCCCN3CCCCC3)c12` [Cmpd 60], the pEC50 was 6.30 to 6.60.

In the case of `COC(=O)c1ccc2c(c1)[nH]c1ncnc(NCCCN3CCOCC3)c12` [Cmpd 19], the pEC50 was under 6.00.

For `Cn1nnc(-c2ccc3c(c2)[nH]c2nc(Cc4ccccc4)nc(NCCCN4CCCCC4)c23)n1` [Cmpd 41], the pEC50 was over 7.00.

For the compound `CCN(CC)CCNc1nc(Cc2cccc(OC)c2)nc2[nH]c3cc(C(=O)OC)cnc3c12` [Cmpd 64], the pEC50 is 6.00 to 6.30.

With `COC(=O)c1ccc2c(c1)[nH]c1ncnc(NCCCN3CCCCC3C)c12` (centres unmarked) [Cmpd 14], the pEC50 is 6.60 to 7.00.

On to `C#CCOC(CNc1nc(Cc2ccccc2)nc2[nH]c3cc(C(=O)OC)ccc3c12)CN1CCCCC1` (centres unmarked) [Cmpd 52], for which the pEC50 is over 7.00.

Consider `COC(=O)c1ccc2c(c1)[nH]c1ncnc(N3CCC(N4CCCCC4)CC3)c12` [Cmpd 20], for which the pEC50 was 6.60 to 7.00.

With `COC(=O)c1ccc2c(c1)[nH]c1nc(C(C)c3ccccc3)nc(NCCCN3CCCCC3)c12` (centres unmarked) [Cmpd 31], the pEC50 is over 7.00.

Take `COC(=O)c1ccc2c(c1)[nH]c1nc(Cc3ccc4ccccc4c3)nc(NCCCN3CCCCC3)c12` [Cmpd 27]: the pEC50 is 6.60 to 7.00.

With `COC(=O)c1ccc2c(c1)[nH]c1nc(Cc3ccccc3)nc(NCCCN3CCCCC3)c12` [Cmpd 34], the pEC50 is over 7.00.

With `CNCCCNc1nc(Cc2cccc(F)c2)nc2[nH]c3cc(C(=O)OC)cnc3c12` [Cmpd 72], the pEC50 is under 6.00.

As for `COC(=O)c1cnc2c(c1)[nH]c1nc(Cc3ccccc3)nc(N(C)CCCN3CCCCC3)c12` [Cmpd 65], the pEC50 is over 7.00.

Regarding `COC(=O)c1ccc2c(c1)[nH]c1nc(Cc3cccc(Br)c3)nc(NCCCN3CCCCC3)c12` [Cmpd 35], the pEC50 was over 7.00.

On to `COC(=O)c1cnc2c(c1)[nH]c1nc(Cc3cccc(F)c3)nc(NCCCN(C)CCCN)c12` [Cmpd 71], for which the pEC50 was 6.30 to 6.60.

As for `COC(=O)c1cnc2c(c1)[nH]c1nc(Cc3ccccc3)nc(NCC(C)CN(C)C)c12` (centres unmarked) [Cmpd 73], the pEC50 was 6.00 to 6.30.

As for `COC(=O)c1ccc2c(c1)[nH]c1cc(Cc3cccc(OC)c3)nc(NCCCCN3CCCC3)c12` [Cmpd 81], the pEC50 was over 7.00.

For the compound `COC(=O)c1ccc2c(c1)[nH]c1ncnc(NCCCN(C)C)c12` [Cmpd 12], the pEC50 was 6.00 to 6.30.

As to `COC(=O)c1cnc2c(c1)[nH]c1nc(Cc3ccccc3C)nc(NCCCN3CCCC3)c12` [Cmpd 67], the pEC50 was 6.30 to 6.60.

For the compound `COC(=O)c1ccc2c(c1)[nH]c1ncnc(NCCCCN(C)C)c12` [Cmpd 10], the pEC50 is 6.30 to 6.60.

Consider `COC(=O)c1ccc2c(c1)[nH]c1cc(Cc3ccsc3)nc(NCCN(C)CCNC(=O)OC(C)(C)C)c12` [Cmpd 83], for which the pEC50 was under 6.00.

Turning to `COC(=O)c1cnc2c(c1)[nH]c1nc(Cc3cccc(OC)c3)nc(NCCCN3CCCCC3C)c12` (centres unmarked) [Cmpd 63], the pEC50 is 6.30 to 6.60.

`COC(=O)c1ccc2c(c1)[nH]c1nc(Cc3ccsc3)nc(NCCCN3CCCCC3)c12` [Cmpd 25]: the pEC50 was over 7.00.

As for `N#Cc1ccc2c(c1)[nH]c1nc(Cc3ccccc3)nc(NCCCN3CCCCC3)c12` [Cmpd 43], the pEC50 was 6.30 to 6.60.

For the compound `COC(=O)c1ccc2c(c1)[nH]c1ncnc(NCCN3CCCCC3)c12` [Cmpd 13], the pEC50 is 6.30 to 6.60.

As to `Cn1nnc(-c2cnc3c(c2)[nH]c2nc(Cc4ccccc4)nc(N[C@H]4CC[C@H](N)CC4)c23)n1` [Cmpd 69], the pEC50 is 6.30 to 6.60.

Staying with this assay, now noted: concentration that results in a 50% increase in CD34+CD45RA- cell count compared to vehicle cultures (DMSO).
Regarding `COC(=O)c1ccc2c(c1)[nH]c1nc(C(=O)c3ccccc3)nc(NCCCN3CCCCC3)c12` [Cmpd 30], the “Biological data (EC50)*” value is given as “F (F = compound showed >1.3 fold expansion)”.

`COC(=O)c1ccc2c(c1)[nH]c1nc(C(O)c3ccccc3)nc(NCCCN3CCCCC3)c12` (centres unmarked) [Cmpd 29]: the “Biological data (EC50)*” value is listed as “F (F = compound showed >1.3 fold expansion)”.

As to `Cc1noc(-c2ccc3c(c2)[nH]c2nc(Cc4ccccc4)nc(NCCCN4CCCCC4)c23)n1.Cl` [Cmpd 42], the “Biological data (EC50)*” value was “F (F = compound showed >1.3 fold expansion)”.

Consider `COC(=O)c1ccc2c(c1)[nH]c1nc(Cc3cccc(C4(C(F)(F)F)N=N4)c3)nc(NCCCN(C)CCCNC(=O)CCCCC3SCC4NC(=O)NC43)c12` (centres unmarked) [Cmpd 57], for which the “Biological data (EC50)*” value is given as “F (F = compound showed >1.3 fold expansion)”.

`COC(=O)c1ccc2c(c1)[nH]c1nc(Cc3ccccc3)nc(CCCCN3CCCCC3)c12` [Cmpd 48]: the “Biological data (EC50)*” value is reported as “F (F = compound showed >1.3 fold expansion)”.

`CCOC(=O)c1ccc2c(c1)[nH]c1nc(Cc3ccccc3)nc(NCCCN3CCCCC3)c12` [Cmpd 33]: the “Biological data (EC50)*” value is on record as “F (F = compound showed >1.3 fold expansion)”.

The assay is the same for the next values; noted with them: concentration that results in a 50% increase in CD34+CD45RA- cell count compared to vehicle cultures (DMSO); read-out: Biological data (EC50)*.
On to `COC(=O)c1ccc2c(c1)[nH]c1ncnc(NC3CCC(N)CC3)c12` (centres unmarked) [Cmpd 44], for which the pEC50 was 6.60 to 7.00.

In the case of `COC(=O)c1ccc2c(c1)[nH]c1ncnc(NC3CCC(N)CC3)c12` (centres unmarked) [Cmpd 45], the pEC50 is 6.30 to 6.60.
